Experimental data published in PMC9841593 (ACS Medicinal Chemistry Letters, 2022).

Experiment: pH-metric titration of pKa

| SMILES | Measured pKa (phenolic proton, pH-metric titration) | pKa |
| --- | --- | --- |
| O=C(O)c1[nH]c(Br)cc(=O)c1O [Compound 2] | 9.79 ± 0.01 |  |
| NC(=O)c1[nH]c(Br)cc(=O)c1O [Compound 3] |  | 9.64 ± 0.02 |
| O=c1cc(Br)[nH]c(-c2nnn[nH]2)c1O [Compound 4] |  | > 12 |
| N/C(=N\O)c1[nH]c(Br)cc(=O)c1O [Compound 6] |  | 9.06 ± 0.02 |
